# Assay results published in ChEMBL document CHEMBL1201862, “PubChem BioAssay data set” (2004).
# The source made the active and inactive calls.
# Columns and labels:
# [1] = decrease of insulin promoter-GFP reporter – imaging, high-content screening, mouse beta cells (AID 1628); format: functional; details: MIN6
# Protein Wnt-3a = Protein Wnt-3a (Mus musculus, UniProt P27467); test: antagonism of Wnt3a pathway luciferase reporter – Wnt-LIGHT cells, luminescence, selectivity assay for Gli-SUFU antagonist project, dose response (AID 651570); format: functional; details: read-out: IC50_Mean;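 note: Wnt-LIGHT reporter cells stimulated with conditioned medium from Wnt3a-producing cells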
# Sequence of Protein Wnt-3a (P27467 whole entry): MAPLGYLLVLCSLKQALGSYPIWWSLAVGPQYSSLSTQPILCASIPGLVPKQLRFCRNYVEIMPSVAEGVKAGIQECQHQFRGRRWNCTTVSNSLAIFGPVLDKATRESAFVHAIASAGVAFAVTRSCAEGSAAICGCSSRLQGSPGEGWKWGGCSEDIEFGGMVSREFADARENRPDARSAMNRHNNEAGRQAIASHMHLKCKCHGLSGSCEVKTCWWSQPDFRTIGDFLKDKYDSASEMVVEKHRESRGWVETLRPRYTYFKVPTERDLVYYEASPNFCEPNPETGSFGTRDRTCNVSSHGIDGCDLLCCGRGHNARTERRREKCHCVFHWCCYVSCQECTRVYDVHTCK
# [2] = MIN6 cell viability loss – mouse insulinoma, cytotoxicity control, dose response (AID 2122); format: functional;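 note: confirmatory high-throughput counterscreen run to flag cytotoxic compounds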
# [3] = Counterscreen for AddAB inhibitors: absorbance-based bacterial cell-based high throughput dose response assay for inhibitors of bacterial viability. [Related pubchem assays (depositor defined):AID435030, AID449728, AID449731, AID488942, AID488955, AID488956]; format: functional
# Exodeoxyribonuclease V = Exodeoxyribonuclease V (Escherichia coli (strain K12), UniProt P04993+P07648+P08394); test: RecBCD inhibition via phage-restricted bacterial growth – absorbance, V66 E. coli, mutant T4 phage, counter-screen for AddAB inhibitor project, dose response (AID 492957); format: functional, cell-based, Escherichia coli str. K-12 substr. MG1655
# [4] = microbe, parasite or virus in culture; format: functional; details: Mycobacterium tuberculosis
# [5] = Luminescence Cell-Based Dose Retest to Confirm Inhibitors of Cancer Stem Cells. [Related pubchem assays (depositor defined):AID2717, AID2721]; format: functional; details: Homo sapiens
# [6] = target: Lysine-specific demethylase 4C (Homo sapiens, UniProt Q9H3R0); test: inhibition of JMJD2C H3K9me3 demethylation – biochemical, DELFIA europium, cherry-picked samples, dose response (AID 488835); format: functional
# Sequence of Lysine-specific demethylase 4C (Q9H3R0 whole entry): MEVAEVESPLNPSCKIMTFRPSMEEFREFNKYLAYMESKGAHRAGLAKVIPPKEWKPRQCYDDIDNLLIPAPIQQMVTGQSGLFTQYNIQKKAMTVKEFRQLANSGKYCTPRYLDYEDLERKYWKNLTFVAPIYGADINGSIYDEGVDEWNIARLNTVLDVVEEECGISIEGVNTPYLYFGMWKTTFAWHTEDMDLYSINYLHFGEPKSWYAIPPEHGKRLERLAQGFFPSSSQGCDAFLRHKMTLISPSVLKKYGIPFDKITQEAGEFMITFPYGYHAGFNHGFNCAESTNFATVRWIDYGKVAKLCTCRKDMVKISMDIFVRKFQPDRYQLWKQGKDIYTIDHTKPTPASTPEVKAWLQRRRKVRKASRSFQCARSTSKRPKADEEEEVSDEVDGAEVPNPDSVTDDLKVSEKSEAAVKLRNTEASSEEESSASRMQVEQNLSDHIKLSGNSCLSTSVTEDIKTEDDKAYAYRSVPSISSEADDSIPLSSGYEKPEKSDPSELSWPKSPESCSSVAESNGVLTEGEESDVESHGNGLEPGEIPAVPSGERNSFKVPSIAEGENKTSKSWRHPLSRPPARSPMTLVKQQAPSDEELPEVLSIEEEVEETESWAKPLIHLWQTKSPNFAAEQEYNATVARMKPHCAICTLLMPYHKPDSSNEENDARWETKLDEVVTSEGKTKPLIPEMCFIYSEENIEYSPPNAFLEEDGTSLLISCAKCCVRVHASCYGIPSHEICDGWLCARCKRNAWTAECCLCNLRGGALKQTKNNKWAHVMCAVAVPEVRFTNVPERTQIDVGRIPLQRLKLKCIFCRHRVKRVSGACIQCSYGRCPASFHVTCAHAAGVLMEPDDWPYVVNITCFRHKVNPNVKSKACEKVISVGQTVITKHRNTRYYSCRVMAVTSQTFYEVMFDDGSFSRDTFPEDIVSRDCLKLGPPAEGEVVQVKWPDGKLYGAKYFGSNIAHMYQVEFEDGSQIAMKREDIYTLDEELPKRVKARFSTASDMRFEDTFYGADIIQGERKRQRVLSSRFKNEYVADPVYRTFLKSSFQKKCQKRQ
# [7] = target: T1, Kappa-type opioid receptor (Homo sapiens, UniProt P41145); test: kappa opioid receptor blockers, cell-based, luminescence, beta-arrestin, SAR follow-up (AID 2285); format: functional
# T1 sequence (P41145 whole entry): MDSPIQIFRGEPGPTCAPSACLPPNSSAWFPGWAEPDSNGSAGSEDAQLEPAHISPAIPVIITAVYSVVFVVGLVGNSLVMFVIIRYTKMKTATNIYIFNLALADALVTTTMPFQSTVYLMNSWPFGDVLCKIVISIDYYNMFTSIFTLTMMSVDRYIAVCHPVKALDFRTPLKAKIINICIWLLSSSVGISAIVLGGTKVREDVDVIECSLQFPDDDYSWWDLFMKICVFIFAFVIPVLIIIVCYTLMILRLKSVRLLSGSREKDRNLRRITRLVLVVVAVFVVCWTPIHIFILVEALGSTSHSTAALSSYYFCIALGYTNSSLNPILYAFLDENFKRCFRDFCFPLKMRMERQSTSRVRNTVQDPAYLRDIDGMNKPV
# [8] = target: T1, Kappa-type opioid receptor; test: kappa opioid receptor activation potency – imaging, image-based, SAR follow-up (AID 2359); format: functional
# Mu-type opioid receptor [9] = target: T2, Mu-type opioid receptor (Homo sapiens, UniProt P35372); test: mu opioid receptor activators, image-based, SAR follow-up (AID 2352); format: functional
# T2 sequence (P35372 whole entry): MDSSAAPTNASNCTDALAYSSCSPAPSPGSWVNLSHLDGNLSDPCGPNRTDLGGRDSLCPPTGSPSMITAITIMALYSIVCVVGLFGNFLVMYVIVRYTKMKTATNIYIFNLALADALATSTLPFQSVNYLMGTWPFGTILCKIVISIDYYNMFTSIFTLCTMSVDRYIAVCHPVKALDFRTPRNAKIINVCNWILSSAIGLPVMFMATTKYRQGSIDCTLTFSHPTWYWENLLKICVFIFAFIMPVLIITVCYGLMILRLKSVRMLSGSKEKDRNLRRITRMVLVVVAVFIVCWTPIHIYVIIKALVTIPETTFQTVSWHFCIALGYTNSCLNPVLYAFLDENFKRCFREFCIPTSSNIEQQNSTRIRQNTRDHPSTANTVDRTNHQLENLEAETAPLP
# Mu-type opioid receptor [10] = target: T2, Mu-type opioid receptor; test: mu opioid receptor blockers – image-based, SAR follow-up (AID 2420); format: functional;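 note: compounds added before stimulation of receptor with agonist DAMGO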
# [11] = target: T3, Delta-type opioid receptor (Homo sapiens, UniProt P41143); test: DOR agonists, SAR follow-up, image-based (AID 2370); format: functional
# T3 sequence (P41143 whole entry): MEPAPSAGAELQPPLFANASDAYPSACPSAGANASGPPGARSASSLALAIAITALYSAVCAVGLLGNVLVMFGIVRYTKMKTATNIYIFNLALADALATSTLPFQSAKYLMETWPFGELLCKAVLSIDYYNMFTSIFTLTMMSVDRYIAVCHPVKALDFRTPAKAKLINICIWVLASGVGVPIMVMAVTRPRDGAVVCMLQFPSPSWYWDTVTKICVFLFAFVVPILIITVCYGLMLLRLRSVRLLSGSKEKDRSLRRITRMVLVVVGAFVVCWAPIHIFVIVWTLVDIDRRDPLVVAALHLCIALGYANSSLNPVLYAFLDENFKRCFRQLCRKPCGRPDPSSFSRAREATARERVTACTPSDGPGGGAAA
# [12] = target: T3, Delta-type opioid receptor; test: delta opioid receptor blockers – image-based, SAR follow-up (AID 2357); format: functional
# [13] = target: T1, Kappa-type opioid receptor; test: kappa opioid receptor blockers, image-based, SAR follow-up (AID 2348); format: functional
# [14] = target: G-protein coupled receptor 55 (Homo sapiens, UniProt Q9Y2T6); test: blockers of GPR55 signalling, imaged – imaging, image-based, counter-screen for GPR35 antagonist project, SAR follow-up (AID 2397); format: functional
# Sequence of G-protein coupled receptor 55 (Q9Y2T6 whole entry): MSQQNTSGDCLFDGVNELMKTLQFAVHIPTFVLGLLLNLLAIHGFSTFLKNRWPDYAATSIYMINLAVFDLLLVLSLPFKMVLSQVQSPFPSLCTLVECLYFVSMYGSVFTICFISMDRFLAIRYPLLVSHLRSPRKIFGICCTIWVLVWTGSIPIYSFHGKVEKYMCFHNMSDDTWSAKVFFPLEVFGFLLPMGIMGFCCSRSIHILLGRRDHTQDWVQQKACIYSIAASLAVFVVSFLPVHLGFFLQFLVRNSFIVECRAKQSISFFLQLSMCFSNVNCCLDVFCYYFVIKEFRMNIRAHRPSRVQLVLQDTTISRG
# [15] = target: Voltage-dependent T-type calcium channel subunit alpha-1H (Homo sapiens, UniProt O95180); test: inhibition of CACNA1H calcium flux – cell-based, SynthLib3 library, HEK293 Cav3.2, fluorescence (AID 493041); format: functional
# [16] = target: T4, Histone-lysine N-methyltransferase NSD2 (Homo sapiens, UniProt O96028); format: biochemical
# T4 sequence (O96028 whole entry): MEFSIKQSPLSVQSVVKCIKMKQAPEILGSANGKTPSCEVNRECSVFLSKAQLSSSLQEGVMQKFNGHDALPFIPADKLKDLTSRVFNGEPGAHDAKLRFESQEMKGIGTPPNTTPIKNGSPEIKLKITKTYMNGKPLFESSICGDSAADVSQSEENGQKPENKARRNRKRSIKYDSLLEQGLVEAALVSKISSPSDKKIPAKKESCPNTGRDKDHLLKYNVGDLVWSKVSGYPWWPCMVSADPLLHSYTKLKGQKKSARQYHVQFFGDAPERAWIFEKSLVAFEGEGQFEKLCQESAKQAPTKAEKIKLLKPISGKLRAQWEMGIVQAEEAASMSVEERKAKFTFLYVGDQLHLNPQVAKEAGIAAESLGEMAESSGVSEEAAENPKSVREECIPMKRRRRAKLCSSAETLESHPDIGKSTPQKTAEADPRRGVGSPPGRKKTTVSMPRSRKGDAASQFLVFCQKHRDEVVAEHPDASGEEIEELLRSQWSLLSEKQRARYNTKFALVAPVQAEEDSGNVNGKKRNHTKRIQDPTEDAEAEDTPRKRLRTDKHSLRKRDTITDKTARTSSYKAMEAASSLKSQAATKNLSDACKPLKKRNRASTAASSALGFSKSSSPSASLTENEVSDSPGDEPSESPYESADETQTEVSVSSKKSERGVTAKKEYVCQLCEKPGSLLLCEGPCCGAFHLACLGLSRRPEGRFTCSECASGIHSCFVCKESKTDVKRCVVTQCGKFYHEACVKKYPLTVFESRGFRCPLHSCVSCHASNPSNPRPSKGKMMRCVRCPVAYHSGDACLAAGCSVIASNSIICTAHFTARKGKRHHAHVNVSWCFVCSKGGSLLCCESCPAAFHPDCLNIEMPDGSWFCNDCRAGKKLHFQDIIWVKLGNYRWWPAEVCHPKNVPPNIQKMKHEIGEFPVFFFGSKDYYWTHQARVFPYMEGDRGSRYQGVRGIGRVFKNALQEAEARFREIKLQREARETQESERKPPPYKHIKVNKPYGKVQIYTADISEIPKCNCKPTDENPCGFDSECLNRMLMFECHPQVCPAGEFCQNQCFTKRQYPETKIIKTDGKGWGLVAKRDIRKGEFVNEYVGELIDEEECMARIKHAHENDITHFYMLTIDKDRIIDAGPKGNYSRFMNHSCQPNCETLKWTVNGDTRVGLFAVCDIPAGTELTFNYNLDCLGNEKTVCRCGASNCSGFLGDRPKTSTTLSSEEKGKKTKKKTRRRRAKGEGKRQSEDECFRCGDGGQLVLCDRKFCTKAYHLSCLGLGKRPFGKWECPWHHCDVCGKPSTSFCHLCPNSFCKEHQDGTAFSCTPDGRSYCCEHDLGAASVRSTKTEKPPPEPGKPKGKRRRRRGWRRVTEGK
# [17] = target: Intestinal-type alkaline phosphatase (Mus musculus, UniProt P24822); test: PubChem AID 488785; format: functional
# Sequence of Intestinal-type alkaline phosphatase (Mus musculus, UniProt P24822) (P24822 whole entry): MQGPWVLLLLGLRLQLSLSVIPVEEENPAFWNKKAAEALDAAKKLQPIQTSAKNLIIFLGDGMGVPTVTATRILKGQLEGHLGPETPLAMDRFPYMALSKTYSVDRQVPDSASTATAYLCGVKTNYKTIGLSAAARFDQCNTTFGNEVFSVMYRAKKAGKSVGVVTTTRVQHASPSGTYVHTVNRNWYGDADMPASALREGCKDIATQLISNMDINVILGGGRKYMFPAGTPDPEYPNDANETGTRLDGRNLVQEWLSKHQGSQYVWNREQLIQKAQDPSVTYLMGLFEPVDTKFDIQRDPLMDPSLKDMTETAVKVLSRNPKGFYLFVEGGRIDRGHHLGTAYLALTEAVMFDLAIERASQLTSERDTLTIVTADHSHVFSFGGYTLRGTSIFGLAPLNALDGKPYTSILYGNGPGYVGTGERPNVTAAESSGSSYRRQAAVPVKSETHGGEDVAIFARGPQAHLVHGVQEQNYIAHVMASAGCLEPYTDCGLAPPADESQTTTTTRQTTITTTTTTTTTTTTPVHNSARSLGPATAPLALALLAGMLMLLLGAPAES
# [18] = viability loss in THP-1 monocytes – THP-1 cells, cytotoxicity control for Vif-APOBEC3G degradation inhibitor project, dose response (AID 1117359); format: functional; details: THP-1
# [19] = target: T5, Alkaline phosphatase, tissue-nonspecific isozyme (Homo sapiens, UniProt P05186); test: TNAP enzyme inhibition by screening hits, dose response, selectivity assay for mouse IAP inhibitor project, biochemical, human TNAP, uHTS hits (AID 488906); format: functional
# T5 sequence (P05186 whole entry): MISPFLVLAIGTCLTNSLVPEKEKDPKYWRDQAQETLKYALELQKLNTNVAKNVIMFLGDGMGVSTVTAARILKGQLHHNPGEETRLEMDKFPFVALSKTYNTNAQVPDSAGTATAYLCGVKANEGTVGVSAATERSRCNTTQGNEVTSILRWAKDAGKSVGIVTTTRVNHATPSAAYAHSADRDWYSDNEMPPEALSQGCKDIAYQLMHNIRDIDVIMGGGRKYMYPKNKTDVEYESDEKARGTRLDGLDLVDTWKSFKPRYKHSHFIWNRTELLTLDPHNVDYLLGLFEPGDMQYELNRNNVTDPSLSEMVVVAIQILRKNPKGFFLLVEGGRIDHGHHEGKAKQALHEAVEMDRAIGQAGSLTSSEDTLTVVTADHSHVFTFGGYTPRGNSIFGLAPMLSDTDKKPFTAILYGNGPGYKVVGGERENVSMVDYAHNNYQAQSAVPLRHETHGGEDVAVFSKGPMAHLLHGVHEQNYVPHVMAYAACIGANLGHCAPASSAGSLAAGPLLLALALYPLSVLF
# [20] = viability of uninfected HEp-2 cells – cell-based, HTS, cytotoxicity control for RSV inhibitor project, dose response (AID 2410); format: functional; details: human respiratory syncytial virus
# Caspase-6 = Caspase-6 (Homo sapiens, UniProt P55212); test: inhibition of CASP6 peptide cleavage – biochemical, VEID-R110 fluorescence, cherry-pick, dose response (AID 720632)
# Sequence of Caspase-6 (P55212 24-179 limits assumed): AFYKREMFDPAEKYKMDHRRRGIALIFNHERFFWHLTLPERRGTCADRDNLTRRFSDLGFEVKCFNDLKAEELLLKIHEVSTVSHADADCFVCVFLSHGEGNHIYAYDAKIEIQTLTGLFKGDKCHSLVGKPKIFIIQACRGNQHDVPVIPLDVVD
# Sequence of Caspase-6 (P55212 194-293 limits assumed): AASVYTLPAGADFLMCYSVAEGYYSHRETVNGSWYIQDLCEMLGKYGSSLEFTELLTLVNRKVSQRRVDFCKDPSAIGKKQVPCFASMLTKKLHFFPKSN
# [21] = target: T6, Trace amine-associated receptor 1 (Homo sapiens, UniProt Q96RJ0); test: Counterscreen for agonists of the human trace amine associated receptor 1 (hTAAR1): Fluorescence-based cell-based high throughput dose response assay to identify hTAAR1 agonist that also desensitize TAAR1 receptor response.; format: functional
# T6 sequence (Q96RJ0 whole entry): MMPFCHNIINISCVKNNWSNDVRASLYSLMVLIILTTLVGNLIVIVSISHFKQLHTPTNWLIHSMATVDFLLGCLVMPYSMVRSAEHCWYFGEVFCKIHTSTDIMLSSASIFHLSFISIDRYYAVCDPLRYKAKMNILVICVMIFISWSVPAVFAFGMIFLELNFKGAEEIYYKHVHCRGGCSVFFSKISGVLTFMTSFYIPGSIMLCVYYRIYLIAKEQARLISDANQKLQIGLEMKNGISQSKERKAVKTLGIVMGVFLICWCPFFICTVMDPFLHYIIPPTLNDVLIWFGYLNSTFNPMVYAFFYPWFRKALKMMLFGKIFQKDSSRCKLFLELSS
# cells [22] = format: functional, cell-based
# [23] = target: Intestinal-type alkaline phosphatase (Homo sapiens, UniProt P09923); test: inhibition of human intestinal alkaline phosphatase – biochemical, dose response (AID 488876); format: functional
# Sequence of Intestinal-type alkaline phosphatase (Homo sapiens, UniProt P09923) (P09923 whole entry): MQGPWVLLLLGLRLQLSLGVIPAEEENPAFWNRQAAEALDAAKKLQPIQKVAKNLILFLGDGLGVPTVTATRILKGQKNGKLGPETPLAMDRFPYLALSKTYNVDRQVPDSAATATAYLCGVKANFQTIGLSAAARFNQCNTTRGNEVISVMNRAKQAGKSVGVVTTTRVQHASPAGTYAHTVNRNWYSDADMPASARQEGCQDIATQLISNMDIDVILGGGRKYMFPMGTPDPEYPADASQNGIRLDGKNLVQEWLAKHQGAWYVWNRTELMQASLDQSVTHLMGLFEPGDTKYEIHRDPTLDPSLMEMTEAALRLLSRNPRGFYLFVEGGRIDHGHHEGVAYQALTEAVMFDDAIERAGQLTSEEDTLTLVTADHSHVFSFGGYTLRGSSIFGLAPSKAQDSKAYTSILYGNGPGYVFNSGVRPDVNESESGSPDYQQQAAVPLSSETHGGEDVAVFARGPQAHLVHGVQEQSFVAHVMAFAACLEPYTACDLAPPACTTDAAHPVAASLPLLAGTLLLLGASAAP
# Vero = test: viability of Vero cells under compound – cytotoxicity control for flavivirus capping enzyme inhibitors (AID 588742); format: functional; details: Chlorocebus sabaeus
# [24] = target: T6, Trace amine-associated receptor 1; test: Fluorescence-based cell-based high throughput dose response assay to identify agonists of the human trace amine associated receptor 1 (TAAR1).; format: functional
# cells [25] = format: functional, cell-based; remark: listed apart in the source
smiles,measurement,setting,value
COc1ccc(NS(=O)(=O)c2ccc(NC(C)=O)cc2)cc1OC,IC50,[1],3.44 µM (active)
same,IC50,Protein Wnt-3a,12 µM (active)
same,IC50,[2],2.22 µM (active)
O=C(CSc1[nH]cnc2ncnc1-2)c1ccc(Cl)cc1,IC50,[3],61.1 µM (inactive)
same,IC50,Exodeoxyribonuclease V,> 119 µM (inactive)
same,CC50,[4],> 40 µM (active)
same,AC50,[5],2.81 µM (active)
CS(=O)(=O)N(CC(=O)NCc1ccco1)c1ccccc1Cl,AC50,[6],18.4 µM (active)
CCC(=NNc1ccnc2cc(Cl)ccc12)c1ccc(O)cc1,IC50,[7],3.54 µM (active)
same,EC50,[8],> 32 µM (inactive)
same,EC50,Mu-type opioid receptor [9],25.3 µM (inactive)
same,IC50,Mu-type opioid receptor [10],> 32 µM (inactive)
same,EC50,[11],30.7 µM (inactive)
same,IC50,[12],> 32 µM (inactive)
same,IC50,[13],3.62 µM (active)
Cc1ccc(OCCC(=O)NCCc2ccc(S(N)(=O)=O)cc2)cc1,IC50,[14],> 32 µM (inactive)
CC(C)Cc1nnc(NC(=O)COc2ccc(F)cc2Cl)o1,EC50,[15],10 µM (active)
O=[N+]([O-])c1ccccc1NC(=S)N/N=C/c1ccc(O)c(O)c1,AC50,[16],1.34 µM (active)
same,IC50,[17],0.216 µM (active)
same,CC50,[18],25.5 µM (active)
same,IC50,[19],1.53 µM (active)
same,CC50,[20],11.7 µM (active)
same,AC50,Caspase-6,1.56 µM (active)
same,IC50,[21],7.2 µM (active)
same,EC50,cells [22],> 29.9 µM (inactive)
same,IC50,[23],> 100 µM (inactive)
same,CC50,Vero,22.8 µM (active)
same,EC50,[24],4.15 µM (active)
same,IC50,cells [25],23.5 µM (inactive)
